{"source": "patent US8034787B2", "about": "“Enzyme-cleavable prodrug compounds” (Medarex, Inc., priority 1998, dated 2011)", "key": {"HL-60 cells": {"test_system": "HL-60 cells", "assay": "3H-thymidine incorporation proliferation assay", "type": "cell-based", "details": "Homo sapiens, HL-60, 24 hours", "description": "Promyelocytic leukemia cells, HL-60, were cultured in RPMI media containing 10% heat inactivated fetal calf serum (FCS). On the day of the study, the cells were collected, washed and resuspended at a concentration of 0.5×10^6 cells/ml in RPMI containing 10% FCS. 100 μl/well of cell suspension was added to 96 well plates. […] Finally, 10 μl of a 100 μCi/ml ^3H-thymidine was added per well and the plates were incubated for 24 hours. The plates were harvested using a 96 well Harvester (Packard Instruments) and counted on a Packard Top Count counter. Four parameter logistic curves were fitted to the ^3H-thymidine incorporation as a function of drug molarity using Prism software to determine IC50 values."}, "MX-1 tumors": {"test_system": "MX-1 tumors", "type": "in vivo, mice", "description": "MX-1 tumors which are moderately doxorubicin-sensitive, human breast carcinoma xenografts, were implanted subcutaneously (s.c.) and mice were weighed and tumors were measured (by caliper) at least once a week prior to start of dosing (Day 0), then twice a week during the study. Immediately before the start of dosing (Study Day −2 to Day 0), mice were randomized to various groups based on the weight of the tumors. Mice were euthanized after the tumors reached a cutoff weight of 1.5 g (cancer endpoint). Studies were terminated at Day 60."}, "LS174T tumor": {"test_system": "LS174T tumor", "source_text": "Statistically significant from vehicle control group: *: p<0.05; **: p<0.01 (unpaired t-test)."}, "[1]": {"assay": "Aggregation, Centricon ultrafiltration", "type": "physicochemical", "details": "17.4 μMol/ml in distilled water, 2 hr at 1500 g; listed as Dox"}, "[2]": {"details": "3 mg/kg, 5 doses, one every 7 days"}}}
{"smiles": "COc1cccc2c1C(=O)c1c(O)c3c(c(O)c1C2=O)C[C@@](O)(C(=O)CO)C[C@@H]3O[C@H]1C[C@H](N)[C@H](O)[C@H](C)O1", "note": "[Doxorubicin]", "values": [{"measurement": "IC50", "setting": "HL-60 cells", "value": 0.075, "unit": "µM"}, {"measurement": "MDS", "setting": "MX-1 tumors; [2]", "value": "27.3 ± 2.6", "unit": "days"}, {"measurement": "Survival: MDS Extension over controls", "setting": "MX-1 tumors; [2]", "value": "33 ± 13", "unit": "%"}, {"measurement": "TGD", "setting": "MX-1 tumors; [2]", "value": "6.8 ± 2.7", "unit": "days"}, {"measurement": "Tumor Weight (mg, Day 18)", "setting": "MX-1 tumors; [2]", "value": "906 ± 150", "unit": "mg"}, {"measurement": "TGI", "setting": "MX-1 tumors; 3 mg/kg, 5 doses, one every 7 days, over control at Day 18", "value": "22 ± 16", "unit": "%"}, {"measurement": "tolerability of dose regimens", "setting": "MX-1 tumors; mouse, in vivo", "value": "very well tolerated"}, {"measurement": "MDS", "setting": "LS174T tumor; [2]", "value": "25.8 ± 2.5", "unit": "days"}, {"measurement": "MDS Extension over controls", "setting": "LS174T tumor; [2]", "value": "3 ± 13", "unit": "%"}, {"measurement": "Mean Tumor Weight (mg, Day 19)", "setting": "LS174T tumor; [2]", "value": "1035 ± 180", "unit": "mg"}, {"measurement": "TGD", "setting": "LS174T tumor; [2]", "value": "0.8 ± 3.1", "unit": "days"}, {"measurement": "TGI", "setting": "LS174T tumor; [2]", "value": 0, "unit": "%"}, {"measurement": "efficacy in inhibiting LS-174T tumor and extending survival", "setting": "LS174T tumor; doxorubicin 3 mg/kg", "value": "ineffective"}, {"measurement": "tolerability of dose regimens", "setting": "LS174T tumor; mouse, in vivo", "value": "very well tolerated"}, {"measurement": "3000 MWCO Filt.", "setting": "[1]", "value": 81, "unit": "%"}]}
